Read-outs that look alike come from different tables or passages of the source.
Columns and labels:
Format in all cases: in vivo
Myzus persicae = tested on: Myzus persicae
Experimental: (§1) To produce a suitable preparation of active compound, 1 part by weight of active compound is mixed with the stated amounts of solvent and emulsifier, and the concentrate is diluted with emulsifier-containing water to the desired concentration.
Cabbage leaves (Brassica oleracea) which are heavily infested by the green peach aphid (Myzus persicae) are treated by being dipped into the preparation of active compound of the desired concentration.
After the desired period of time, the kill in % is determiined. 100% means that all aphids have been killed; 0% means that none of the aphids have been killed. The determined kill rates are entered into Colby's formula.

[1] = tested on: Phaedon cochleariae larvae; assay: Phaedon cochleariae larvae test (cabbage leaf dip)
Experimental: Phaedon Cochleariae Larvae Test
as §1
Cabbage leaves (Brassica oleracea) are treated by being dipped into the active compound preparation of the desired concentration and are populated with larvae of the mustard beetle (Phaedon cochleariae) while the leaves are still moist.
After the desired period of time, the kill in % is determined. 100% means that all larvae have been killed; 0% means that none of the larvae have been killed. The determined kill rates are entered into Colby's formula.

[2] = tested on: Plutella xylostella, resistant strain; conditions: Table A, 20 ppm, caterpillars on dipped cabbage leaves
Experimental: Plutella Xylostella Test, Resistant Strain
as §1
Cabbage leaves (Brassica oleracea) are treated by being dipped into the active compound preparation of the desired concentration and are populated with caterpillars of the diamondback moth (Plutella xylostella, resistant strain) while the leaves are still moist.
After the desired period of time, the kill in % is determined. 100% means that all caterpillars have been killed; 0% means that none of the caterpillars have been killed. The determined kill rates are entered into Colby's formula.

Molecule: CNC(=O)O/N=C/C(C)(C)SC [aldicarb]
- Kill in % after 1 d (Myzus persicae; Table B1, 4 ppm): 45%
- Kill in % after 1 d ([1]; Table C1, 20 ppm): 25%
- Kill in % after 1 d ([1]; Table C2, 20 ppm): 25%

Molecule: CN/C(=N/[N+](=O)[O-])NCc1cnc(Cl)s1 [clothianidin]
- Kill in % after 6 days [2]: 0%
- Kill in % after 1 d (Myzus persicae; Table B1, 0.80 ppm): 50%
- Kill in % after 1 d ([1]; Table C2, 4 ppm): 65%

Molecule: O=[N+]([O-])N=C1NCCN1Cc1ccc(Cl)nc1 [imidacloprid]
- Kill in % after 1 d (Myzus persicae; Table B1, 0.16 ppm): 20%
- Kill in % after 1 d (Myzus persicae; Table B2, 0.16 ppm): 10%
- Kill in % after 1 d ([1]; Table C1, 4 ppm): 5%
- Kill in % after 1 d ([1]; Table C2, 4 ppm): 20%

Molecule: ethoprophos
- Kill in % after 6 days [2]: 5%
- Kill in % after 1 d (Myzus persicae; Table B2, 20 ppm): 0%
